Legend:
human orexin-1 receptor = target: T1, human orexin-1 receptor (Homo sapiens, UniProt O43613); experiment: Intracellular calcium measurements (FLIPR), orexin receptor antagonistic activity, OX1; type: cell-based; conditions: CHO cells expressing the human orexin-1 receptor, agonist 10 nM human orexin-A
T1 construct: expressed in transfected cells; host or cells: CHO cells (G418 selection)
T1 sequence (O43613 1-425): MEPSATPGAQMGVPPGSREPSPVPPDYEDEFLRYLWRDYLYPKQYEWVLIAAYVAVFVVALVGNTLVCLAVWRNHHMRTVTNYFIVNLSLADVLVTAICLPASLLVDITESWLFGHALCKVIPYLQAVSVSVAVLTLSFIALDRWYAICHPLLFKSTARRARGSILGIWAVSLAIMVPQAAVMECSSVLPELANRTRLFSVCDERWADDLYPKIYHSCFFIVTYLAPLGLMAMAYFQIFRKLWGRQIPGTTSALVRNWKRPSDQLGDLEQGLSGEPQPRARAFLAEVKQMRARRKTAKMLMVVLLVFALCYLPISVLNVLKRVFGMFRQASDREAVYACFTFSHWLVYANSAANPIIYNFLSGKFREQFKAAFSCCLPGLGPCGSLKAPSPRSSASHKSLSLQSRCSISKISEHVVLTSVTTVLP
Experimental: (§1) The Orexin receptor antagonistic activity of the compounds of formula (I) was determined in accordance with the following experimental method.
(§2) Intracellular Calcium Measurements
(§3) Chinese hamster ovary (CHO) cells expressing the human orexin-1 receptor and the human orexin-2 receptor, respectively, were grown in culture medium (Ham F-12 with L-Glutamine) containing 300 μg/ml G418, 100 U/ml penicillin, 100 μg/ml streptomycin and 10% inactivated foetal calf serum (FCS).
(§4) The cells were seeded at 80,000 cells/well into 96-well black clear bottom sterile plates (Costar) which had been precoated with 1% gelatine in Hanks' Balanced Salt Solution (HBSS). All reagents were from Gibco BRL.
(§5) The seeded plates were incubated overnight at 37° C. in 5% CO2.
(§6) Human orexin-A as an agonist was prepared as 1 mM stock solution in methanol:water (1:1), diluted in HBSS containing 0.1% bovine serum albumin (BSA) and 2 mM HEPES for use in the assay at a final concentration of 10 nM.
(§7) Antagonists were prepared as 10 mM stock solution in DMSO, then diluted in 96-well plates, first in DMSO, then in HBSS containing 0.1% bovine serum albumin (BSA) and 2 mM HEPES.
(§8) On the day of the assay, 100 μl of loading medium (HBSS containing 1% FCS, 2 mM HEPES, 5 mM probenecid (Sigma) and 3 μM of the fluorescent calcium indicator fluo-3 AM (1 mM stock solution in DMSO with 10% pluronic acid) (Molecular Probes) was added to each well.
(§9) The 96-well plates were incubated for 60 min at 37° C. in 5% CO2. The loading solution was then aspirated and cells were washed 3 times with 200 μl HBSS containing 2.5 mM probenecid, 0.1% BSA, 2 mM HEPES. 100 μl of that same buffer was left in each well. Within the Fluorescent Imaging Plate Reader (FLIPR, Molecular Devices), antagonists were added to the plate in a volume of 50 μl, incubated for 20 min and finally 100 μl of agonist was added. Fluorescence was measured for each well at 1 second intervals, and the height of each fluorescence peak was compared to the height of the fluorescence peak induced by 10 nM orexin-A with buffer in place of antagonist.

human orexin-2 receptor = target: T2, human orexin-2 receptor (Homo sapiens, UniProt O43614); experiment: Intracellular calcium measurements (FLIPR), orexin receptor antagonistic activity, OX2; type: cell-based; conditions: CHO cells expressing the human orexin-2 receptor, agonist 10 nM human orexin-A
T2 construct: expressed in transfected cells; host or cells: CHO cells (G418 selection)
T2 sequence (O43614 1-444): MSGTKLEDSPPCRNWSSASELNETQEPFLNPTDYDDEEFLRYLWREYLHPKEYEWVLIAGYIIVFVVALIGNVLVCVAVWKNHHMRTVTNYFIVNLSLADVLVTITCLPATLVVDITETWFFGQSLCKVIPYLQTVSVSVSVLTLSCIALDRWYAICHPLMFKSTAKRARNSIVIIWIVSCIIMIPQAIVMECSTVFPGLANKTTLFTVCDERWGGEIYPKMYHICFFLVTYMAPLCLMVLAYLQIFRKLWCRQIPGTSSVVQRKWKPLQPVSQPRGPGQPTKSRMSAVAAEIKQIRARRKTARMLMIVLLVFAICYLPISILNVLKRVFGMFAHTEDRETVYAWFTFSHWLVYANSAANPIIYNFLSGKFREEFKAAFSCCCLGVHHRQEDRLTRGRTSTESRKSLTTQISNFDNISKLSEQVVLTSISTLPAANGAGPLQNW
Experimental: as §1, §2, §3, §4, §5, §6, §7, §8, §9

Compound: CCN(CCC#N)C(=O)CN(c1ccc(C)cc1)S(=O)(=O)c1ccc(C(C)(C)C)cc1 [Example 63, 2-[(4-tert-Butyl-benzenesulfonyl)-p-tolyl-amino]-N-(2-cyano-ethyl)-N-ethyl-acetamide]
- IC50 (human orexin-1 receptor): > 10000 nM
- IC50 (human orexin-2 receptor): 3 nM

Compound: CCN(Cc1cccc(C)n1)C(=O)CN(c1ccc(OC)nc1)S(=O)(=O)c1ccccc1C [Example 160, N-Ethyl-2-[(6-methoxy-pyridin-3-yl)-(toluene-2-sulfonyl)-amino]-N-(6-methyl-pyridin-2-ylmethyl)-acetamide]
- IC50 (human orexin-1 receptor): 8640 nM
- IC50 (human orexin-2 receptor): 2 nM

Compound: CCN(Cc1ccccc1)C(=O)CN(c1ccccc1OC)S(=O)(=O)c1ncccc1C [Example 185, N-Benzyl-N-ethyl-2-[(2-methoxy-phenyl)-(3-methyl-pyridine-2-sulfonyl)-amino]-acetamide]
- IC50 (human orexin-1 receptor): 4270 nM
- IC50 (human orexin-2 receptor): 4 nM

Compound: CCN(Cc1cccc(O)c1)C(=O)CN(c1ccccc1OC)S(=O)(=O)c1ccccc1C [Example 158, N-Ethyl-N-(3-hydroxy-benzyl)-2-[(2-methoxy-phenyl)-(toluene-2-sulfonyl)-amino]-acetamide]
- IC50 (human orexin-1 receptor): 840 nM
- IC50 (human orexin-2 receptor): 5 nM

Compound: CCN(Cc1ccccc1)C(=O)CN(c1ccc(OC)nc1)S(=O)(=O)c1ccccc1C [Example 46, N-Benzyl-N-ethyl-2-[(6-methoxy-pyridin-3-yl)-(toluene-2-sulfonyl)-amino]-acetamide]
- IC50 (human orexin-1 receptor): 898 nM
- IC50 (human orexin-2 receptor): 5 nM

Compound: CCN(Cc1ccccc1)C(=O)CN(c1ccc(OC)nc1)S(=O)(=O)c1ncccc1C [Example 207, N-Benzyl-N-ethyl-2-[(6-methoxy-pyridin-3-yl)-(3-methyl-pyridine-2-sulfonyl)-amino]-acetamide]
- IC50 (human orexin-1 receptor): 5370 nM
- IC50 (human orexin-2 receptor): 4 nM

Compound: CCN(Cc1ccccn1)C(=O)CN(c1ccc(OC)nc1)S(=O)(=O)c1ccccc1C [Example 163, N-Ethyl-2-[(6-methoxy-pyridin-3-yl)-(toluene-2-sulfonyl)-amino]-N-pyridin-2-ylmethyl-acetamide]
- IC50 (human orexin-1 receptor): > 10000 nM
- IC50 (human orexin-2 receptor): 4 nM

Compound: CCN(Cc1cccc(C)n1)C(=O)CN(c1ccc(C)cc1)S(=O)(=O)c1ccc(C(C)(C)C)cc1 [Example 71, 2-[(4-tert-Butyl-benzenesulfonyl)-p-tolyl-amino]-N-ethyl-N-(6-methyl-pyridin-2-ylmethyl)-acetamide]
- IC50 (human orexin-1 receptor): 417 nM
- IC50 (human orexin-2 receptor): 5 nM

Compound: CN(C)c1cccc(N(CC(=O)N(CCO)Cc2ccccn2)S(=O)(=O)c2ccc(C(C)(C)C)cc2)c1 [Example 111, 2-[(4-tert-Butyl-benzenesulfonyl)-(3-dimethylamino-phenyl)-amino]-N-(2-hydroxy-ethyl)-N-pyridin-2-ylmethyl-acetamide]
- IC50 (human orexin-1 receptor): 331 nM
- IC50 (human orexin-2 receptor): 5 nM

Compound: CCN(Cc1ccccn1)C(=O)CN(c1ccc(C)cc1)S(=O)(=O)c1ccc(C(C)(C)C)cc1 [Example 66, 2-[(4-tert-Butyl-benzenesulfonyl)-p-tolyl-amino]-N-ethyl-N-pyridin-2-ylmethyl-acetamide]
- IC50 (human orexin-1 receptor): 1030 nM
- IC50 (human orexin-2 receptor): 4 nM

Compound: CCN(Cc1ccccc1)C(=O)CN(c1ccccc1OC)S(=O)(=O)c1ccccc1C [Example 47, N-Benzyl-N-ethyl-2-[(2-methoxy-phenyl)-(toluene-2-sulfonyl)-amino]-acetamide]
- IC50 (human orexin-1 receptor): 354 nM
- IC50 (human orexin-2 receptor): 4 nM

Compound: CCN(Cc1cccc(C)n1)C(=O)CN(c1cccc(N(C)C)c1)S(=O)(=O)c1ccc(C(C)(C)C)cc1 [Example 87, 2-[(4-tert-Butyl-benzenesulfonyl)-(3-dimethylamino-phenyl)-amino]-N-ethyl-N-(6-methyl-pyridin-2-ylmethyl)-acetamide]
- IC50 (human orexin-1 receptor): 56 nM
- IC50 (human orexin-2 receptor): 8 nM

— patent publication US7435815B2, “Sulfonylamino-acetic acid derivatives” (Actelion Pharmaceuticals Ltd., priority 2002, dated 2008)
